Format in all cases: cell-based, murine
Assay [1] concerns the target T1, B16F10 cellular tyrosinase (Mus musculus, UniProt P11344).
T1 construct: B16F10 murine melanoma cells were used as a cellular tyrosinase source; endogenous in cells; host or cells: B16F10 murine melanoma cells (ATCC)
T1 sequence (P11344 19-533): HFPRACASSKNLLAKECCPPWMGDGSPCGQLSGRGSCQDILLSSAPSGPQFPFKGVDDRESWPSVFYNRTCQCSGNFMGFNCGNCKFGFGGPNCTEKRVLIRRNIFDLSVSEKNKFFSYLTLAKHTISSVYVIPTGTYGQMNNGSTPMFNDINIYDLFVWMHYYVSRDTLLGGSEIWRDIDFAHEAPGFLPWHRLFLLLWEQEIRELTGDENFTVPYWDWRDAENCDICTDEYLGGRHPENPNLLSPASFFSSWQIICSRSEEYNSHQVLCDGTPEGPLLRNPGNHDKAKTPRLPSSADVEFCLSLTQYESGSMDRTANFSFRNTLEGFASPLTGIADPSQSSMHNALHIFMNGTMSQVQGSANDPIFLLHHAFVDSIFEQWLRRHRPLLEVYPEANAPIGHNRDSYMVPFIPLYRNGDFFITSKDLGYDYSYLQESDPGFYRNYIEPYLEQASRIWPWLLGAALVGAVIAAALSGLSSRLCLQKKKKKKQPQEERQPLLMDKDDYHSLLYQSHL
Description: Cellular tyrosinase activity assay in α–MSH plus IBMX stimulated B16F10 cells. The conditions noted are these: 5, 10, 20 µM, 72 h.
Description: Cellular Tyrosinase Activity Assay
Briefly, cultured B16F10 cells were seeded in 6-well culture plate at 1 × 10^4 cells/well and incubated for 12 h under cell culture conditions to allow them to adhere to well bottoms. […] Cells were then washed with PBS twice and exposed to a lysis buffer solution (100 µL) comprised of 5 µL of 20% Triton X-100, 5 µL of 2 mM PMSF, and 90 µL of 50 mM phosphate buffer in pH 6.5. Lysates were kept at −80 °C for 30 min, defrosted, and centrifuged at 12,000 rpm for 30 min at 4 °C. Supernatants (80 µL) were mixed with 20 µL of 2 mg/mL of L-dopa in a 96-well plate, and absorbance of each well was measured at 475 nm every 10 min for 1 h at 37 °C using a microplate reader (VersaMax®, Molecular Devices, Sunnyvale, CA, USA). Experiments were performed independently 3 times.
Cellular tyrosinase activities were determined by measuring optical densities at 475 nm.

Another assay concerns tyrosinase. Description: RT-qPCR of tyrosinase mRNA in α–MSH/IBMX stimulated B16F10 cells. The protocol: 2.17. RNA Extraction and Quantitative Real Time-Polymerase Chain Reaction (RT-qPCR)
B16F10 cells were extracted using GeneAll RiboEx Total RNA extraction reagent (GeneAll Biotechnology, Seoul, Korea) and transferred to tubes, added with chloroform (0.1 mL), shaken vigorously for 30 sec, and centrifuged for 15 min at 12,000× g. Aqueous phases were transferred to fresh tubes, and equal volumes of isopropanol were added. Samples were then incubated at 4 °C for 10 min and centrifuged for 15 min at 12,000× g at 4 °C. Supernatants were discarded, and RNA pellets were washed once with 0.8 mL of 70% ethanol and by vortexing briefly and centrifuged for 5 min at 7500× g at 4 °C. Pellets were dried at 56 °C for 10–15 min and dissolved in 30 µL of diethyl pyrocarbonate (DEPC)-treated water. The levels of RNA were determined by a Nanodrop spectrophotometer (NANO-200, Allsheng, Hangzhou, China). Complementary DNA (cDNA) was synthesized from total RNA (2 µg) using SuPrime Script RT Premix (with random hexamer) cDNA Synthesis Kit (GeNet Bio, Daejeon, Korea). […]
To further investigate the anti-melanogenesis mechanism of analog 3, we examined its effect on the expressions of melanogenesis-associated genes and levels of melanogenesis-associated proteins in B16F10 cells. […] Nuclear levels of MITF protein were measured by Western blotting in α–MSH/IBMX-stimulated B16F10 cells. […]
(In general: Quantitative PCR measures a nucleic acid by following its amplification.)

For another assay, the system named is MITF. Description: Western blot of nuclear MITF in α–MSH/IBMX stimulated B16F10 cells. The following applies: 5, 10, 20 µM. The procedure:
2.15. Extraction of Cytosolic and Nuclear Proteins from Cells
Western blotting was used to determine tyrosinase and MITF protein levels. Briefly, B16F10 cells were seeded in 60 mm culture dishes in the presence or absence of α–MSH (1 µM) plus IBMX (200 µM) with or without analog 3 (5, 10, and 20 µM for final concentrations) for 24 h, washed twice with ice-cold PBS and centrifuged for 10 min at 12,000× g. Cell pellets were suspended in 10 mM Tris (pH 8.0) containing 0.1% NP-40, 1 mM DTT, 1.5 mM MgCl2, 1 mM PMSF, and protease inhibitors (GenDEPOT, Barker, TX, USA), incubated on ice for 15 min, and centrifuged for 10 min at 12,000× g at 4 °C. Supernatants were used as cytosolic fractions. […] The protein concentrations were determined using a bicinchoninic acid (BCA)™ assay kit (Pierce, Rockford, IL, USA). […]
Lysed protein samples from cells were boiled for 10 min in sample-loading buffer (0.1% bromophenol blue, 25% glycerol, 60 mM Tris-HCl (pH 6.8), 2% SDS, and 0.5% β-mercaptoethanol) at a volume ratio of 1:4. […] Immunoreactive proteins were detected using the enhanced chemiluminescence (ECL) detection reagent in the SuperSignal® West Pico Chemiluminescent Substrate kit (Advansta, San Jose, CA, USA). Western blot bands were visualized using a Davinch-Chemi imager™ (Davinch-K, Seoul, Korea), and quantification was conducted by densitometric analysis using CS analyzer software ver. […]
In general terms: A western blot detects proteins with antibodies after separation by electrophoresis.

In the case of `O=C1/C(=C/c2ccc(O)cc2O)SC(=S)N1C1CCCCC1` [Analog 3, (Z)-3-Cyclohexyl-5-(2,4-dihydroxybenzylidene)-2-thioxothiazolidin-4-one], the “effect on α–MSH plus IBMX induced increase in cellular tyrosinase activity” value in assay [1] was “significantly and dose-dependently reduced”. Further, the “effect on expression of tyrosinase (mRNA)” value with tyrosinase (α–MSH/IBMX stimulated) is “significantly and concentration-dependently decreased”. In the assay with tyrosinase (α–MSH/IBMX stimulated (3.3-fold), 5 µM), this compound returned a tyrosinase gene expression of 2.6 fold. Further, in the assay on MITF, the “effect on α–MSH/IBMX-induced increases in MITF levels (nuclear protein)” value is “significantly and concentration-dependently suppressed”.

(Values after PMC9598926, “Design and Synthesis of (Z)-5-(Substituted benzylidene)-3-cyclohexyl-2-thioxothiazolidin-4-one Analogues as Anti-Tyrosinase and Antioxidant Compounds: In Vitro and In Silico Insights” (Antioxidants, 2022).)
